Legend:
Assay in all cases: Bliss excess, mean over the matrix (fraction); higher = more synergy
[1] = tested on: BxPC-3 (Pancreatic Carcinoma)
Summary of the method: (§1)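 After 24 hours at 37°C and 5% CO2 in 1536-well plates, cells in DMEM/F12 or RPMI plus 10% FBS received two-drug dose matrices for 72 hours. Viability came from CellTiter-Glo 2.0 luminescence and was scaled as inhibition, anchored at 0 by vehicle wells and at 1 by blank wells. Combination Emax is taken as the second-highest inhibition in the matrix, and Bliss excess as the observed combination effect less EA + EB − EA·EB, with EA and EB the single-agent effects.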

[2] = tested on: TUR (Acute Myeloid Leukemia)
Summary of the method: as §1

[3] = tested on: SAT (Head and Neck Carcinoma)
Summary of the method: as §1

KALS-1 (Glioblastoma) = tested on: KALS-1 (Glioblastoma)
Summary of the method: as §1

UACC-257 (Melanoma) = tested on: UACC-257 (Melanoma)
Summary of the method: as §1

NCI-H226 (Mesothelioma) = tested on: NCI-H226 (Mesothelioma)
Summary of the method: as §1

[4] = tested on: T84 (Colorectal Carcinoma)
Summary of the method: as §1

[5] = tested on: SNU-407 (Colorectal Carcinoma)
Summary of the method: as §1

[6] = tested on: MM1S (Plasma Cell Myeloma)
Summary of the method: as §1

[7] = tested on: HT-1080 (Other Solid Carcinomas)
Summary of the method: as §1

[8] = tested on: PL4 (Pancreatic Carcinoma)
Summary of the method: as §1

T47D (Breast Carcinoma) = tested on: T47D (Breast Carcinoma)
Summary of the method: as §1

IST-MEL1 (Melanoma) = tested on: IST-MEL1 (Melanoma)
Summary of the method: as §1

[9] = tested on: PA-TU-8988T (Pancreatic Carcinoma)
Summary of the method: as §1

Structure (SMILES)	Bliss excess [1]	Bliss excess [2]	Bliss excess [3]	Bliss excess (KALS-1 (Glioblastoma))	Bliss excess (UACC-257 (Melanoma))	Bliss excess (NCI-H226 (Mesothelioma))	Bliss excess [4]	Bliss excess [5]	Bliss excess [6]	Bliss excess [7]	Bliss excess [8]	Bliss excess (T47D (Breast Carcinoma))	Bliss excess (IST-MEL1 (Melanoma))	Bliss excess [9]
CC1(C)CCC(CN2CCN(c3ccc(C(=O)NS(=O)(=O)c4ccc(NCC5CCOCC5)c([N+](=O)[O-])c4)c(Oc4cnc5[nH]ccc5c4)c3)CC2)=C(c2ccc(Cl)cc2)C1 [Venetoclax] + C=CCn1c(=O)c2cnc(Nc3ccc(N4CCN(C)CC4)cc3)nc2n1-c1cccc(C(C)(C)O)n1 [AZD1775] (first compound max 1 µM, partner max 1 µM)	0.092	-0.0071	-0.0537	0.0815	-0.0142	-0.0296	-0.0498	-0.0755	-0.0281	-0.0359	-0.0751	-0.0814	0.0462	-0.0286
Cc1cc2ncnn2cc1Nc1ncc2c(n1)n(C1CCOCC1)c(=O)n2C [AZD7648] + C=CCn1c(=O)c2cnc(Nc3ccc(N4CCN(C)CC4)cc3)nc2n1-c1cccc(C(C)(C)O)n1 [AZD1775] (first compound max 10 µM, partner max 1 µM)	-0.0502	0.019	-0.0065	-0.0051	0.0334	-0.004	-0.0288	0.0134	-0.0401	0.0591	0.0057	-0.0146	-0.011	-0.0563
Cc1c2c(nn1C)CSCc1cc(n(C)n1)CSc1cc(c3ccccc3c1)OCCCc1c(C(=O)O)n(C)c3c-2c(Cl)ccc13 [AZD5991] + C[C@@H]1COCCN1C2=NC(=NC(=C2)C3(CC3)[S@](=N)(=O)C)C4=C5C=CNC5=NC=C4 [AZD6738] (first compound max 1 µM, 7x7, partner max 10 µM)	-0.01	0.096	0.0466	0.0165	0.0278	0.0298	-0.0127	0.0148	0.102	0.0041	0.0606	0.0333	-0.0344	0.0151
COc1cccc2c1C(=O)c1c(O)c3c(c(O)c1C2=O)C[C@@](O)(C(=O)CO)C[C@@H]3O[C@H]1C[C@H](N)[C@H](O)[C@H](C)O1 [Doxorubicin] + Cc1cc2ncnn2cc1Nc1ncc2c(n1)n(C1CCOCC1)c(=O)n2C [AZD7648] (first compound max 1 µM, 7x7, partner max 10 µM)	0.0216	0.119	0.0764	0.0571	-0.0059	0.0068	-0.0081	-0.0143	0.0891	0.108	0.0391	-0.0004	0.0511	0.0582
CC1(C)CCC(CN2CCN(c3ccc(C(=O)NS(=O)(=O)c4ccc(NCC5CCOCC5)c([N+](=O)[O-])c4)c(Oc4cnc5[nH]ccc5c4)c3)CC2)=C(c2ccc(Cl)cc2)C1 [Venetoclax] + C[C@@H]1COCCN1C2=NC(=NC(=C2)C3(CC3)[S@](=N)(=O)C)C4=C5C=CNC5=NC=C4 [AZD6738] (first compound max 1 µM, 7x7, partner max 10 µM)	0.0101	-0.0024	-0.0144	-0.034	-0.0092	-0.0383	-0.0134	-0.0138	0.0444	-0.0253	-0.0918	-0.0634	-0.019	0.0107
CN(CCO)CC[C@H](CSc1ccccc1)Nc1ccc(S(=O)(=O)NC(=O)c2ccc(N3CCC([C@@H](O)c4ccccc4-c4ccc(Cl)cc4)CC3)cc2)cc1S(=O)(=O)C(F)(F)F [AZD4320] + CCN(CCO)CCCOc1ccc2c(Nc3cc(CC(=O)Nc4cccc(F)c4)[nH]n3)ncnc2c1 [AZD2811] (first compound max 1 µM, 7x7, partner max 1 µM)	-0.0001	0.0393	0.0112	0.0804	-0.0022	-0.0238	-0.0305	-0.102	0.118	-0.0046	0.0251	-0.0174	0.0445	0.0239
COc1cccc(OCCCN)c1-c1cc(Nc2cnc(C#N)cn2)n[nH]1 [Prexasertib] + O=C(c1cc(Cc2n[nH]c(=O)c3ccccc23)ccc1F)N1CCN(C(=O)C2CC2)CC1 [Olaparib] (first compound max 1 µM, 7x7, partner max 10 µM)	-0.0706	-0.0181	-0.0473	-0.115	-0.0242	-0.0802	-0.0119	-0.0041	-0.0683	0.0164	0.0356	-0.0093	-0.124	-0.0057
CN(C)CCCOc1ccc(-c2ccc3ncc4c(c3c2)n(C2CCOCC2)c(=O)n4C)cn1 [AZD0156] + C[C@@H]1COCCN1C2=NC(=NC(=C2)C3(CC3)[S@](=N)(=O)C)C4=C5C=CNC5=NC=C4 [AZD6738] (first compound max 1 µM, 7x7, partner max 10 µM)	-0.0083	0.0261	-0.0116	-0.0032	-0.0338	-0.0581	0.0182	-0.0322	0.0173	0.02	0.0862	-0.0223	-0.0196	0.0423
Cc1c2c(nn1C)CSCc1cc(n(C)n1)CSc1cc(c3ccccc3c1)OCCCc1c(C(=O)O)n(C)c3c-2c(Cl)ccc13 [AZD5991] + C1CN(CCC1(C(=O)N[C@@H](CCO)C2=CC=C(C=C2)Cl)N)C3=NC=NC4=C3C=CN4 [Capivasertib] (first compound max 1 µM, 7x7, partner max 3 µM)	-0.0005	0.0937	-0.0072	0.0491	0.0061	-0.0473	-0.0185	0.0036	-0.0098	-0.0594	0.0199	-0.0887	0.0025	-0.01
CN(CCO)CC[C@H](CSc1ccccc1)Nc1ccc(S(=O)(=O)NC(=O)c2ccc(N3CCC([C@@H](O)c4ccccc4-c4ccc(Cl)cc4)CC3)cc2)cc1S(=O)(=O)C(F)(F)F [AZD4320] + Cn1cnc2c(F)c(Nc3ccc(Br)cc3Cl)c(C(=O)NOCCO)cc21 [Selumetinib] (first compound max 1 µM, 7x7, partner max 3 µM)	0.0749	0.0029	0.0523	0.0924	0.0815	-0.0248	0.0142	-0.0231	0.0799	-0.0965	0.0473	0.0231	-0.072	0.0561
C[C@@H]1COCCN1c1cc(C2([S@](C)(=N)=O)CC2)nc(-c2ccnc3[nH]ccc23)n1 [AZD6738] + O=C(c1cc(Cc2n[nH]c(=O)c3ccccc23)ccc1F)N1CCN(C(=O)C2CC2)CC1 [Olaparib] (first compound max 10 µM, 7x7, partner max 10 µM)	0.0231	0.0244	0.0019	0.0028	-0.0009	-0.0156	-0.027	-0.0323	-0.0388	0.0128	-0.0408	0.0359	0.035	0.0472
C=CCn1c(=O)c2cnc(Nc3ccc(N4CCN(C)CC4)cc3)nc2n1-c1cccc(C(C)(C)O)n1 [AZD1775] + C[C@@H]1COCCN1C2=NC(=NC(=C2)C3(CC3)[S@](=N)(=O)C)C4=C5C=CNC5=NC=C4 [AZD6738] (first compound max 1 µM, partner max 10 µM)	-0.0161	0.0657	-0.0229	0.0058	0.0398	-0.0327	0.0084	0.0031	-0.0128	0.0145	0.0501	-0.0302	0.021	0.0222
CN(CCO)CC[C@H](CSc1ccccc1)Nc1ccc(S(=O)(=O)NC(=O)c2ccc(N3CCC([C@@H](O)c4ccccc4-c4ccc(Cl)cc4)CC3)cc2)cc1S(=O)(=O)C(F)(F)F [AZD4320] + C1CN(CCC1(C(=O)N[C@@H](CCO)C2=CC=C(C=C2)Cl)N)C3=NC=NC4=C3C=CN4 [Capivasertib] (first compound max 1 µM, 7x7, partner max 3 µM)	-0.0395	-0.0062	-0.0363	-0.0039	-0.0405	-0.0589	-0.0269	-0.0633	-0.0076	-0.0794	-0.0712	-0.0554	-0.0226	-0.0315
Cc1c2c(nn1C)CSCc1cc(n(C)n1)CSc1cc(c3ccccc3c1)OCCCc1c(C(=O)O)n(C)c3c-2c(Cl)ccc13 [AZD5991] + CC1(C)CCC(CN2CCN(c3ccc(C(=O)NS(=O)(=O)c4ccc(NCC5CCOCC5)c([N+](=O)[O-])c4)c(Oc4cnc5[nH]ccc5c4)c3)CC2)=C(c2ccc(Cl)cc2)C1 [Venetoclax] (first compound max 1 µM, 7x7, partner max 1 µM)	0.0411	0.138	0.0101	-0.0206	-0.0485	-0.0582	-0.0369	0.0014	0.0483	-0.0353	-0.0611	-0.0042	0.009	-0.0031
CCc1c2c(nc3ccc(O)cc13)-c1cc3c(c(=O)n1C2)COC(=O)[C@]3(O)CC [SN-38] + CN(C)CCCOc1ccc(-c2ccc3ncc4c(c3c2)n(C2CCOCC2)c(=O)n4C)cn1 [AZD0156] (first compound max 0.3 µM, 7x7, partner max 1 µM)	0.0025	0.0516	0.0361	0.0189	0.0023	-0.0287	0.108	-0.0188	-0.0498	0.0132	0.0253	-0.0023	-0.0785	0.0755
CN(C)CCCOc1ccc(-c2ccc3ncc4c(c3c2)n(C2CCOCC2)c(=O)n4C)cn1 [AZD0156] + C=CCn1c(=O)c2cnc(Nc3ccc(N4CCN(C)CC4)cc3)nc2n1-c1cccc(C(C)(C)O)n1 [AZD1775] (first compound max 1 µM, partner max 1 µM)	-0.0506	0.0088	-0.0388	0.0014	-0.0223	-0.0862	-0.0631	-0.0136	-0.0653	-0.0316	-0.0586	0.0108	-0.0225	-0.0504
Cc1cc2ncnn2cc1Nc1ncc2c(n1)n(C1CCOCC1)c(=O)n2C [AZD7648] + CN(C)CCCOc1ccc(-c2ccc3ncc4c(c3c2)n(C2CCOCC2)c(=O)n4C)cn1 [AZD0156] (first compound max 10 µM, 7x7, partner max 1 µM)	-0.0034	0.0283	0.0062	0.015	-0.02	-0.0393	0.0332	-0.0385	0.0196	-0.0246	-0.0153	0.0055	-0.0228	0.0174

Reference: the supplement of paper PMC11061612
